2 molecules from patent US20070191319A1, “Treatment of conditions that present with low bone mass by continuous combination therapy with selective prostaglandin ep4 receptor agonists and an estrogen” (Pfizer Inc., priority 2003, published 2007) can be followed below.

The assay has as its system ovariectomized (OVX) rat skeleton. In words: Continuous combination therapy protocol in OVX rats, pQCT of femur. The class given is in vivo, Sprague-Dawley (S-D) female rats. The conditions noted are these: 4 weeks treatment, EP4 agonist 0.3 mg/kg/d by Alzet pump, E2 0.01 mg/kg/d by pellets. From the text:
Prostaglandin E2 (PGE2) restores bone mass by stimulating both bone formation and bone resorption but in favor of bone formation in ovariectomized (OVX) rat skeleton. 5-(3-{2S-[3R-Hydroxy-4-(3-trifluoromethyl-phenyl)-butyl}-5-oxo-pyrrolidin-1-yl}-propyl)-thiophene-2-carboxylic acid, an EP4 receptor selective agonist, can mimic PGE2's systemic bone anabolic effects when given by daily subcutaneous injection. However, like PGE2, slow release delivery of 5-(3-{2S-[3R-hydroxy-4-(3-trifluoromethyl-phenyl)-butyl}-5-oxo-pyrrolidin-1-yl}-propyl)-thiophene-2-carboxylic acid, by Alzet pump may cause bone loss by stimulating both bone resorption and bone formation but in favor of bone resorption in OVX rat skeleton. Estrogen (17-βestradiol) inhibits bone resorption and turnover, thus preventing bone loss in OVX rats. […] Sprague-Dawley (S-D) female rats were sham-operated (n=20) or OVX (n=50) at 3.5 months of age. Three and an half months post-surgery, OVX rats were treated with either vehicle, 5-(3-{2S-[3R-hydroxy-4-(3-trifluoromethyl-phenyl)-butyl}-5-oxo-pyrrolidin-1-yl}-propyl)-thiophene-2-carboxylic acid at 0.3 mg/kg/d (by Alzet pumps in subcutaneous area, […] release rate, for duration of 14 days, replace the pumps at day 15), or 17-βestradiol (E2) at 0.01 mg/kg/d (administered by 30 day release pellets), or combined 5-(3-{2S-[3R-hydroxy-4-(3-trifluoromethyl-phenyl)-butyl}-5-oxo-pyrrolidin-1-yl}-propyl)-thiophene-2-carboxylic acid at 0.3 mg/kg/d (by Alzet pumps in subcutaneous area, […] release rate, for duration of 28 days) and 17-βestradiol (E2) at 0.01 mg/kg/d (administered by 30 day release pellets) for 4 weeks. Total mineral density and cortical bone area of distal femoral metaphysis and femoral shaft were determined by peripheral […] computerized tomography (pQCT) as described previously (Ke H. Z. et al., Lasofoxifene protects against the age-related changes in bone mass, bone strength, and total serum cholesterol in intact aged male rats. J. of Bone and Mineral Research, 2001;16:765-773).

Turning to `O=C(O)c1ccc(CCCN2C(=O)CC[C@@H]2CC[C@@H](O)Cc2cccc(C(F)(F)F)c2)s1` [5-(3-{2S-[3R-Hydroxy-4-(3-trifluoromethyl-phenyl)-butyl]-5-oxo-pyrrolidin-1-yl}-propyl)-thiophene-2-carboxylic acid], the “change in cortical bone area of distal femoral metaphysis compared with OVX controls” value is −15%, the “change in cortical bone area of femoral shaft compared with OVX controls” value is “no significant change”, the “change in total mineral density of distal femoral metaphysis compared with OVX controls” value was −15% and the “change in total mineral density of femoral shaft compared with OVX controls” value is reported as “no significant change”.

Take `C[C@]12CC[C@@H]3c4ccc(O)cc4CC[C@H]3[C@@H]1CC[C@@H]2O` [17-βestradiol (E2), 17β-estradiol]: the “change in cortical bone area of distal femoral metaphysis compared with OVX controls” value is given as “did not cause significant change”, the “change in cortical bone area of femoral shaft compared with OVX controls” value is listed as “no significant change”, the “change in total mineral density of distal femoral metaphysis compared with OVX controls” value was “did not cause significant change” and the “change in total mineral density of femoral shaft compared with OVX controls” value was “no significant change”.
